The target in assay [1] is Angiotensin-converting enzyme (Homo sapiens, UniProt P12821). Briefly: Inhibition of angiotensin converting enzyme (ACE). The class given is protein assay.
The next assay deals with T1, Neprilysin (Rattus norvegicus, UniProt P07861).
T1 sequence (P07861 whole entry): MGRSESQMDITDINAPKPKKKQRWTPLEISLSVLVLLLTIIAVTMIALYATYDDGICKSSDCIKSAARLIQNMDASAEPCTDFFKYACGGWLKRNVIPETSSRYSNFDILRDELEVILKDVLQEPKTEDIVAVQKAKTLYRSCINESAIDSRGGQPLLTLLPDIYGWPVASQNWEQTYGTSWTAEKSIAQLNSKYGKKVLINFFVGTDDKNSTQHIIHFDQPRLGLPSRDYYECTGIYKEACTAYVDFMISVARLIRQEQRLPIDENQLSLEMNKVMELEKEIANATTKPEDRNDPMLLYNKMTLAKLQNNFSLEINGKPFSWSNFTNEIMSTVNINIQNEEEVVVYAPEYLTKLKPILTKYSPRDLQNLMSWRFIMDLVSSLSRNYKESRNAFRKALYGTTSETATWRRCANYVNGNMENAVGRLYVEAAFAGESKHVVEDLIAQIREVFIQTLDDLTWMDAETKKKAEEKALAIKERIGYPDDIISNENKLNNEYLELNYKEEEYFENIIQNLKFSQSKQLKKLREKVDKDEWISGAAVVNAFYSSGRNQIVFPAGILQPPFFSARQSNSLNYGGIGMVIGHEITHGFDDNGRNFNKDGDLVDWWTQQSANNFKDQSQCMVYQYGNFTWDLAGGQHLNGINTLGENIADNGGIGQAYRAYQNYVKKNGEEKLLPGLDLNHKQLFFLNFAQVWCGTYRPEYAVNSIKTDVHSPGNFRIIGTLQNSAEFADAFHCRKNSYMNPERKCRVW
Briefly: Inhibition of neutral endopeptidase (NEP) 24.11.

The species named for assay [2] is Rattus norvegicus. Briefly: Time taken for 50 % or more inhibition of angiotensin-I (AI) induced pressor response in normotensive rats. In kind it is functional.
For assay [3], the species on record is Rattus norvegicus. The experiment in a line: Compound concentration that causes inhibition of angiotensin-I (AI) induced pressor response in normotensive rats after intra arterial injection. The class given is functional.
Assay [4] is filed under the species Rattus norvegicus. The experiment in a line: Concentration that causes inhibition of angiotensin-I (AI) induced pressor response in normotensive rats after intra arterial injection. The class given is functional.

The values below come from ChEMBL document CHEMBL1128869, “-Mercaptoacyl dipeptides that inhibit angiotensin converting enzyme and neutral endopeptidase 24.11” (Bioorg Med Chem Lett, 1995).

Broadly, the IC50 is the concentration that gives 50% inhibition. The low end stands for greater potency in that assay, the high end for weaker potency in that assay.

As for `CC(C)[C@H](S)C(=O)N[C@@H](Cc1ccc(-c2ccccc2)cc1)C(=O)N[C@@H](CO)C(=O)O`, the half-maximal inhibitory concentration (IC50) in assay [1] turned out to be 100 nM; against Neprilysin, 43 nM.

`CC(C)[C@H](S)C(=O)N[C@@H](Cc1ccc(-c2ccccc2)cc1)C(=O)N[C@H](C(=O)O)C(C)C`: the 50% inhibitory concentration (IC50) in assay [1] amounted to 175 nM; on Neprilysin, 33 nM. Further, the Duration of action in the assay listed under Rattus norvegicus [2] is on record as 70 min. Besides, in the assay listed under Rattus norvegicus [3], the Inhibition was found to be 10 mg/kg.

Take `O=C(N[C@@H](Cc1ccc(-c2ccccc2)cc1)C(=O)O)[C@H](S)Cc1ccccc1`: the 50% inhibitory concentration (IC50) in assay [1] was determined as 688 nM; against Neprilysin it was 100 nM.

For the molecule `O=C(N[C@@H](Cc1ccc(-c2ccccc2)cc1)C(=O)N1CCC[C@H]1C(=O)O)[C@H](S)c1ccc2c(c1)OCO2`, the IC50 in assay [1] was determined as 378 nM; on Neprilysin it was 222 nM.

Consider `CC(C)[C@H](S)C(=O)N[C@@H](Cc1ccc(-c2ccccc2)cc1)C(=O)N1CCC[C@H]1C(=O)O`, for which the IC50 in assay [1] is 319 nM; against Neprilysin, 500 nM.

Regarding `O=C(N[C@@H](Cc1ccc(-c2ccccc2)cc1)C(=O)N1CCC[C@H]1C(=O)O)[C@@H](S)Cc1ccccc1`, the results for the IC50 (in assay [1]; on Neprilysin) were 57 nM and 117 nM, respectively. The molecule also had a Duration of action in the assay filed under Rattus norvegicus [2] of 50 min. For the same molecule, the Inhibition in the assay listed under Rattus norvegicus [4] came to 10 mg/kg.

As for `O=C(N[C@@H](Cc1ccc2ccccc2c1)C(=O)N1CCC[C@H]1C(=O)O)[C@H](S)Cc1ccccc1`, the IC50 was determined as 304 nM in assay [1] and 583 nM at Neprilysin.

For the molecule `O=C(N[C@@H](Cc1ccc(-c2ccccc2)cc1)C(=O)N1CCC[C@H]1C(=O)O)[C@@H](S)c1ccc2c(c1)OCO2`, the 50% inhibitory concentration (IC50) in assay [1] turned out to be 183 nM; at Neprilysin, 385 nM.

Consider `O=C(N[C@@H](Cc1cccc2ccccc12)C(=O)N1CCC[C@H]1C(=O)O)[C@H](S)Cc1ccccc1`, for which the results for the IC50 (in assay [1]; against Neprilysin) were 27 nM and over 1000 nM, respectively.

Consider `O=C(O)[C@H](Cc1ccc(-c2ccccc2)cc1)NC(=O)[C@@H](S)Cc1ccccc1`, for which the concentration for half-maximal inhibition (IC50) in assay [1] stood at 80 nM; against Neprilysin it was 654 nM.

As to `O=C(N[C@@H](Cc1cccc2ccccc12)C(=O)N1CCC[C@H]1C(=O)O)[C@@H](S)Cc1ccccc1`, the IC50 is 14 nM in assay [1] and over 1000 nM on Neprilysin.

`O=C(N[C@@H](Cc1ccc(-c2ccccc2)cc1)C(=O)N1CCC[C@H]1C(=O)O)[C@H](S)Cc1ccccc1`: the half-inhibitory concentration (IC50) in assay [1] came out at 229 nM; on Neprilysin, 59 nM.

Consider `CC(C)[C@H](S)C(=O)N[C@@H](Cc1ccc(-c2ccccc2)cc1)C(=O)N[C@@H](Cc1ccc(O)cc1)C(=O)O`, for which the IC50 in assay [1] was 62 nM; against Neprilysin it was 28 nM. Moreover, the Duration of action in the assay listed under Rattus norvegicus [2] is listed as 60 min. This molecule displayed an Inhibition in the assay filed under Rattus norvegicus [4] of 10 mg/kg.

Take `O=C(N[C@@H](Cc1ccc2ccccc2c1)C(=O)N1CCC[C@H]1C(=O)O)[C@@H](S)Cc1ccccc1`: the IC50 in assay [1] was 18 nM; at Neprilysin it was 705 nM. Moreover, the Duration of action in the assay filed under Rattus norvegicus [2] turned out to be 25 min. The same molecule gave an Inhibition in the assay listed under Rattus norvegicus [4] of 10 mg/kg.
